Results published in ChEMBL document CHEMBL3872220, “Amphiphilic xanthones as a potent chemical entity of anti-mycobacterial agents with membrane-targeting properties” (Eur J Med Chem, 2016).
Converted amounts (≈) assume the structure as drawn. The source made the active and inactive calls. The rule behind the calls is not given here.

Tests used:
[1] = test system: Mycolicibacterium smegmatis; experiment: Bactericidal activity against Mycobacterium smegmatis MC2 155 assessed as log reduction in bacterial colonies at 4 times MIC measured after 3 hrs by time-kill assay; type: functional, str. MC2 155
[2] = test system: Mycolicibacterium smegmatis; experiment: Induction of membrane integrity impairment in Mycobacterium smegmatis MC2 155 at 2 times MIC by SYTO-9/propium iodide staining based Baclight assay relative to control; type: functional, str. MC2 155
[3] = test system: Mycolicibacterium smegmatis; experiment: Bactericidal activity against Mycobacterium smegmatis MC2 155 measured after 2 days by time-kill assay; type: functional; details: str. MC2 155
[4] = AUC (0 to infinity) in Sprague-Dawley rat at 2 mg/kg, iv administered as single bolus dose measured by LC-MS/MS method; type: ADME, organism-based; parameters: dose 2 mg/kg, route intravenous, time infinity; details: in vivo
[5] = Hemolytic activity against New Zealand white rabbit RBC assessed as hemoglobin release measured after 1 hr; type: ADME, cell-based, Oryctolagus cuniculus, Erythrocyte; details: red blood cells
[6] = Terminal half life in Sprague-Dawley rat at 2 mg/kg, iv administered as single bolus dose measured by LC-MS/MS method; type: ADME, organism-based; details: in vivo, read-out: beta t1/2 (converted)
[7] = test system: Mycolicibacterium smegmatis; experiment: Bactericidal activity against Mycobacterium smegmatis MC2 155 assessed as log reduction in bacterial colonies at 3.2 uM measured after 6 hrs by time-kill assay; type: functional, str. MC2 155
[8] = test system: Mycolicibacterium smegmatis; experiment: Bactericidal activity against Mycobacterium smegmatis MC2 155 assessed as log reduction in bacterial colonies at 2 times MIC measured after 3 hrs by time-kill assay; type: functional, str. MC2 155
[9] = test system: Mycolicibacterium smegmatis; experiment: Induction of impaired membrane integrity in Mycobacterium smegmatis MC2 155 assessed as reduction in membrane integrity at 0.5 times MIC by SYTO-9/propium iodide stain based Baclight assay relative to control; type: functional, str. MC2 155; parameters: scale not given: the % may be the effect or the level left
[10] = Terminal half life in Sprague-Dawley rat at 2 mg/kg administered via oral gavage measured by LC-MS/MS method; type: ADME, organism-based; details: in vivo, read-out: beta t1/2 (converted)
[11] = Cmax in Sprague-Dawley rat at 2 mg/kg administered via oral gavage measured by LC-MS/MS method; type: ADME, organism-based; parameters: dose 2 mg/kg, route oral; details: in vivo
[12] = Selectivity index, ratio of CC50 for human corneal fibroblasts assessed as reduction in ATP level to MIC90 for Mycobacterium bovis BCG ATCC 35734
[13] = Selectivity index, ratio of CC50 for human corneal fibroblasts assessed as reduction in ATP level to MIC90 for Mycobacterium smegmatis MC2 155
[14] = Volume of distribution in Sprague-Dawley rat at 2 mg/kg, iv administered as single bolus dose measured by LC-MS/MS method; type: ADME, organism-based; details: in vivo
[15] = Oral bioavailability in Sprague-Dawley rat at 2 mg/kg measured by LC-MS/MS method; type: ADME, organism-based; details: in vivo
[16] = AUC (0 to infinity) in Sprague-Dawley rat at 2 mg/kg, administered via oral gavage measured by LC-MS/MS method; type: ADME, organism-based; parameters: dose 2 mg/kg, time infinity, route oral; details: in vivo
[17] = test system: Mycolicibacterium smegmatis; experiment: Induction of membrane integrity impairment in Mycobacterium smegmatis MC2 155 at 4 times MIC measured after 24 hrs by SYTO-9/propium iodide staining based Baclight assay relative to control; type: functional, str. MC2 155
[18] = Clearance in Sprague-Dawley rat at 2 mg/kg, iv administered as single bolus dose measured by LC-MS/MS method; type: ADME, organism-based; details: in vivo
[19] = test system: Mycolicibacterium smegmatis; experiment: Induction of impaired membrane integrity in Mycobacterium smegmatis MC2 155 assessed as reduction in membrane integrity at MIC by SYTO-9/propium iodide stain based Baclight assay relative to control; type: functional, str. MC2 155; parameters: scale not given: the % may be the effect or the level left
[20] = Cmax in Sprague-Dawley rat at 2 mg/kg, iv administered as single bolus dose measured by LC-MS/MS method; type: ADME, organism-based; parameters: dose 2 mg/kg, route intravenous; details: in vivo
[21] = Tmax in Sprague-Dawley rat at 2 mg/kg administered via oral gavage measured by LC-MS/MS method; type: ADME, organism-based; details: in vivo
[22] = test system: Mycolicibacterium smegmatis; experiment: Bactericidal activity against Mycobacterium smegmatis MC2 155 assessed as log reduction in bacterial colonies at 2 times MIC measured after 6 hrs by time-kill assay; type: functional, str. MC2 155
Lipid bilayer [23] = experiment: Induction of membrane damage in CI/DOPG/DOPI large unilamellar vesicles assessed as calcein leakage at lower compound to lipid ratio by fluorescence based […] assay relative to control
[24] = test system: Mycobacterium tuberculosis; experiment: Antimycobacterial activity against Mycobacterium tuberculosis clinical isolate 01;064 assessed as reduction in 2 log10 bacterial colonies measured after 14 to 21 days by agar dilution method; type: functional
Lipid bilayer [25] = experiment: Induction of membrane damage in CI/DOPG/DOPI large unilamellar vesicles assessed as calcein leakage at 1:8 compound to lipid ratio by fluorescence based […] assay relative to control
Lipid bilayer [26] = experiment: Induction of membrane damage in CI/DOPG/DOPI large unilamellar vesicles assessed as calcein leakage at 1:4 compound to lipid ratio by fluorescence based […] assay relative to control
[27] = test system: Mycolicibacterium smegmatis; experiment: Induction of membrane disruption in Mycobacterium smegmatis MC2 155 assessed as increased cytoplasmic membrane permeability at 60 uM up to 3 hrs by Sytox green uptake assay; type: functional; details: str. MC2 155
[28] = test system: Mycobacterium tuberculosis; experiment: Antimycobacterial activity against Mycobacterium tuberculosis clinical isolate 01;057 assessed as reduction in 2 log10 bacterial colonies measured after 14 to 21 days by agar dilution method; type: functional
[29] = test system: Mycolicibacterium smegmatis; experiment: Bactericidal activity against Mycobacterium smegmatis MC2 155 assessed as log reduction in bacterial colonies at 4 times MIC measured after 24 hrs by time-kill assay; type: functional, str. MC2 155

CCCN(CCC)CCCCOc1cc2oc3cc(OCCCCN(CCC)CCC)c(OC)c(CC=C(C)C)c3c(=O)c2c(O)c1CC=C(C)C
Activity [1]: 4.15
Activity [2]: 78.8%
Activity [3]: Dose-dependent effect
AUC [4]: 22780 ng·h/mL
HC50 at 1 h [5]: > 277 µM
half-life [6]: 9.93 h
Activity [7]: 1.6
Activity [8]: 2.85
Activity [9]: <15%
half-life [10]: 4.79 h
Cmax [11]: 320 ng/mL
Selectivity Index [12]: 15 - 40
Selectivity Index [13]: 15 - 40
Vd [14]: 1.28 L/kg
bioavailability [15]: 14 to 15%
AUC(0-inf) [16]: 3300 ng·h/mL
Activity [17]: 76.9%
CL [18]: 24.7 mL/min/kg
Activity [19]: 28%
Cmax [20]: 1500 ng/mL
Tmax [21]: 4 h
Activity [22]: 4.15
Activity (Lipid bilayer [23]): < 10%

CCN(CC)CCCCOc1cc2oc3cc(OCCCCN(CC)CC)c(OC)c(CC=C(C)C)c3c(=O)c2c(O)c1CC=C(C)C
MIC [24]: 8 µg/mL (≈ 12 µM)
Activity [9]: <15%
Activity (Lipid bilayer [25]): 14.6%
Activity (Lipid bilayer [26]): 23.4%
Activity [27]: Active
MIC [28]: 4 µg/mL (≈ 6.02 µM)
Activity [17]: 62.5%

COc1c(OCCCCN2CCOCC2)cc2oc3cc(OCCCCN4CCOCC4)c(CC=C(C)C)c(O)c3c(=O)c2c1CC=C(C)C
HC50 at 1 h [5]: > 289 µM
MIC [24]: 4 µg/mL (≈ 5.77 µM)
Activity [29]: 2.4
Selectivity Index [12]: 15 - 40
Selectivity Index [13]: 15 - 40
MIC [28]: 4 µg/mL (≈ 5.77 µM)
